Measurements from PMC12528448, “Resistance to CDK7 inhibitors directed by acquired mutation of a conserved residue in cancer cells” (The EMBO Journal, 2025).
Where “and” joins values, the source holds several entries; their conditions need not be identical. Equal entries are not always repeated.

Key:
22Rv1-SamR cells [1] = assay: IncuCyte confluency growth, 22Rv1-SamR; assay type: cell-based, human; settings: 22Rv1-SamR; for % Confluency: 1.25µM Samuraciclib
Method: (§1) To determine the IC50 of drug treatments on growth, cells were seeded in 96-well culture plates. Two days after seeding, the cells were treated with increasing concentrations of drugs and incubated for 4 days. Cell number was determined using the SRB assay (Skehan et al, [1990]), and IC50 values were calculated using non-linear regression curve fitting in GraphPad Prism v10. For all other growth experiments, cells were seeded into 96-well plates, and appropriate drugs were added 2 days after seeding. Cells were then incubated in an IncuCyte Zoom live-cell imager, with cell confluency measured every 6 h. Cell doubling times were determined by non-linear curve fitting (exponential growth equation) in GraphPad Prism v10.

[2] = system: 22Rv1 homozygous CDK7-D97N CL3 cells; assay: IncuCyte confluency growth, 22Rv1 homozygous CDK7-D97N CL3; assay type: cell-based, human; settings: for % Confluency: 1.25µM Samuraciclib
Method: as §1

MCF7 cells = assay: Growth assay (SRB), MCF7; assay type: cell-based, human; settings: for % Growth: biological reps
Summary of the method: (§2)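 Doubling times come from exponential growth fits of live-cell confluency, which was imaged every 6 h after drug addition on day 2 post-seeding. IC50 values derive from SRB cell counts after a 4-day exposure to a concentration series, also started on day 2.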

22Rv1-SamR cells [3] = assay: Growth assay (SRB), Samuraciclib-resistant 22Rv1; assay type: cell-based, human; settings: 4 days; for % Growth: 22Rv1 SamR, biological reps
Summary of the method: as §2

22Rv1 cells = assay: IncuCyte confluency growth, 22Rv1; assay type: cell-based, human; settings: 1.25µM Samuraciclib
Method: as §1

[4] = system: 22Rv1 CDK7-D97N CL3 cells; assay: Growth assay (SRB), 22Rv1 homozygous CDK7-D97N clone CL3; assay type: cell-based; settings: Homo sapiens; 22Rv1 CDK7-D97N complete knock-in clone CL3; Figure R1; read-out: IC50, growth inhibition
Method: as §1
Alt-R^TM S.p. Cas9 nuclease V3, Alt-R CRISPR-Cas9 crRNA, TracrRNA and the donor templates were obtained from Integrated DNA Technologies. […] Cells were treated with 0.7 µM of Alt-R HDR Enhancer V2 to improve HRD efficiency. Sequences of the CRISPRs in the crRNA and the donor templates are shown in the Reagents and tools table. Donor templates were designed to include non-coding substitutions to aid genome DNA PCR for identifying knock-in events and to facilitate cloning; these substitutions are noted in the Reagents and tools table.

What does the source list for `CC(C)c1cnn2c(NCc3ccccc3)cc(NC[C@H]3CCNC[C@@H]3O)nc12` [Samuraciclib]?
% Confluency (22Rv1-SamR cells [1]; 0 hours): 9.95% and 14.33% and 14.57%; % Confluency (22Rv1-SamR cells [1]; 6 hours): 10.40% and 16.13% and 16.29%; % Confluency (22Rv1-SamR cells [1]; 12 hours): 11.65% and 17.66% and 17.87%; % Confluency (22Rv1-SamR cells [1]; 18 hours): 12.68% and 19.79% and 20.05%; % Confluency (22Rv1-SamR cells [1]; 24 hours): 14.19% and 22.35% and 22.55%; % Confluency (22Rv1-SamR cells [1]; 30 hours): 15.61% and 24.60% and 24.68%; % Confluency (22Rv1-SamR cells [1]; 36 hours): 16.94% and 26.20% and 26.26%; % Confluency (22Rv1-SamR cells [1]; 42 hours): 17.81% and 27.46% and 27.71%; % Confluency (22Rv1-SamR cells [1]; 48 hours): 18.38% and 28.92% and 29.43%; % Confluency (22Rv1-SamR cells [1]; 54 hours): 19.67% and 30.91% and 31.32%; % Confluency (22Rv1-SamR cells [1]; 60 hours): 20.82% and 32.87% and 33.32%; % Confluency (22Rv1-SamR cells [1]; 66 hours): 22.29% and 34.64% and 35.33%; % Confluency (22Rv1-SamR cells [1]; 72 hours): 23.74% and 36.43% and 37.12%; % Confluency (22Rv1-SamR cells [1]; 78 hours): 25.50% and 38.39% and 39.15%; % Confluency (22Rv1-SamR cells [1]; 84 hours): 27.27% and 40.40% and 41.13%; % Confluency (22Rv1-SamR cells [1]; 90 hours): 29.10% and 42.68% and 43.52%; % Confluency (22Rv1-SamR cells [1]; 96 hours): 31.07% and 45.25% and 45.93%; % Confluency (22Rv1-SamR cells [1]; 114 hours): 38.05% and 53.22% and 54.00%; % Confluency (22Rv1-SamR cells [1]; 120 hours): 40.50% and 56.05% and 56.55%; % Confluency (22Rv1-SamR cells [1]; 126 hours): 43.34% and 58.82% and 59.09%; % Confluency (22Rv1-SamR cells [1]; 132 hours): 46.08% and 61.31% and 61.57%; % Confluency (22Rv1-SamR cells [1]; 138 hours): 48.67% and 63.52% and 63.85%; % Confluency (22Rv1-SamR cells [1]; 144 hours): 51.40% and 65.10% and 65.55%; Growth inhibition over time (22Rv1-SamR cells [1]; IncuCyte confluency, samuraciclib at 1.35 µM): considerably less growth inhibited; % Confluency ([2]; CDK7D97N CL3, 0 hours): 11.15% and 16.69% and 15.87%; % Confluency ([2]; CDK7D97N CL3, 6 hours): 12.67% and 19.64% and 18.89%; % Confluency ([2]; CDK7D97N CL3, 12 hours): 14.00% and 21.38% and 20.49%; % Confluency ([2]; CDK7D97N CL3, 18 hours): 14.90% and 23.74% and 22.71%; % Confluency ([2]; CDK7D97N CL3, 24 hours): 16.23% and 26.69% and 25.53%; % Confluency ([2]; CDK7D97N CL3, 30 hours): 17.78% and 29.17% and 27.88%; % Confluency ([2]; CDK7D97N CL3, 36 hours): 18.86% and 30.89% and 29.55%; % Confluency ([2]; CDK7D97N CL3, 42 hours): 19.43% and 32.04% and 30.87%; % Confluency ([2]; CDK7D97N CL3, 48 hours): 20.15% and 33.30% and 32.45%; % Confluency ([2]; CDK7D97N CL3, 54 hours): 21.35% and 35.23% and 34.41%; % Confluency ([2]; CDK7D97N CL3, 60 hours): 22.64% and 37.22% and 36.36%; % Confluency ([2]; CDK7D97N CL3, 66 hours): 23.89% and 39.05% and 38.37%; % Confluency ([2]; CDK7D97N CL3, 72 hours): 25.25% and 40.82% and 40.29%; % Confluency ([2]; CDK7D97N CL3, 78 hours): 26.70% and 42.56% and 42.42%; % Confluency ([2]; CDK7D97N CL3, 84 hours): 28.04% and 44.37% and 44.58%; % Confluency ([2]; CDK7D97N CL3, 90 hours): 29.44% and 46.55%; % Confluency ([2]; CDK7D97N CL3, 96 hours): 30.80% and 48.80% and 48.76%; % Confluency ([2]; CDK7D97N CL3, 114 hours): 35.00% and 54.89% and 54.85%; % Confluency ([2]; CDK7D97N CL3, 120 hours): 36.47% and 56.68%; % Confluency ([2]; CDK7D97N CL3, 126 hours): 38.04% and 58.51% and 58.53%; % Confluency ([2]; CDK7D97N CL3, 132 hours): 39.56% and 60.46% and 60.48%; % Confluency ([2]; CDK7D97N CL3, 138 hours): 41.00% and 62.13% and 62.12%; % Confluency ([2]; CDK7D97N CL3, 144 hours): 42.51% and 63.49% and 63.85%; Growth inhibition over time ([2]; 22Rv1 homozygous CDK7-D97N clone, IncuCyte confluency, samuraciclib at 1.35 µM): considerably less growth inhibited; IC50 (MCF7 cells; Homo sapiens, 96 h, 4 days, SRB): 12.1 nM; % Growth (MCF7 cells; Log10 Conc. (nM) 0.09, 4 days): 94.81% and 93.76% and 96.34% and 97.66%; % Growth (MCF7 cells; Log10 Conc. (nM) 0.69, 4 days): 67.73% and 59.93% and 79.41% and 74.71%; % Growth (MCF7 cells; Log10 Conc. (nM) 3.70, 4 days): -10.28% and -8.18% and -0.52% and -0.67%; % Growth (MCF7 cells; Log10 Conc. (nM) 4.30, 4 days): -14.83% and -14.97% and -6.89% and -6.39%; % Growth (MCF7 cells; Log10 Conc. (nM) -0.52, 4 days): 94.36% and 98.21% and 94.31% and 95.03%; % Growth (22Rv1-SamR cells [3]; Log10 Conc. (nM) 0.09): 94.72% and 90.72% and 99.75%; % Growth (22Rv1-SamR cells [3]; Log10 Conc. (nM) 0.69): 90.82% and 97.87% and 95.29%; % Growth (22Rv1-SamR cells [3]; Log10 Conc. (nM) 1.29): 89.73% and 89.03% and 90.50%; % Growth (22Rv1-SamR cells [3]; Log10 Conc. (nM) 1.89): 86.74% and 81.44% and 88.23%; % Growth (22Rv1-SamR cells [3]; Log10 Conc. (nM) 2.49): 85.25% and 77.93% and 90.16%; % Growth (22Rv1-SamR cells [3]; Log10 Conc. (nM) 3.10): 36.34% and 46.19% and 56.19%; % Growth (22Rv1-SamR cells [3]; Log10 Conc. (nM) -0.52): 93.63% and 92.01% and 97.14%; IC50 (22Rv1-SamR cells [3]; Homo sapiens, 96 h, 22Rv1-SamR, SRB, read-out: IC50, growth inhibition): 1720 nM; % Confluency (22Rv1 cells; 22Rv1, 0 hours): 11.09% and 19.39% and 18.69%; % Confluency (22Rv1 cells; 22Rv1, 6 hours): 11.39% and 20.88% and 20.07%; % Confluency (22Rv1 cells; 22Rv1, 12 hours): 11.53% and 22.21% and 21.45%; % Confluency (22Rv1 cells; 22Rv1, 18 hours): 12.38% and 23.96% and 23.27%; % Confluency (22Rv1 cells; 22Rv1, 24 hours): 12.59% and 24.76% and 24.14%; % Confluency (22Rv1 cells; 22Rv1, 72 hours): 18.17% and 36.04% and 35.50%; % Confluency (22Rv1 cells; 22Rv1, 78 hours): 18.89% and 36.95% and 36.29%; % Confluency (22Rv1 cells; 22Rv1, 84 hours): 19.31% and 37.65% and 37.05%; % Confluency (22Rv1 cells; 22Rv1, 90 hours): 19.76% and 38.15% and 37.44%; % Confluency (22Rv1 cells; 22Rv1, 96 hours): 20.21% and 38.65% and 37.90%; % Confluency (22Rv1 cells; 22Rv1, 114 hours): 21.28% and 39.48% and 38.59%; % Confluency (22Rv1 cells; 22Rv1, 120 hours): 21.53% and 39.86% and 38.66%; % Confluency (22Rv1 cells; 22Rv1, 126 hours): 21.77% and 39.89% and 38.66%; % Confluency (22Rv1 cells; 22Rv1, 132 hours): 21.94% and 40.00% and 38.90%; % Confluency (22Rv1 cells; 22Rv1, 138 hours): 22.18% and 40.24% and 38.99%; % Confluency (22Rv1 cells; 22Rv1, 144 hours): 22.26% and 40.34% and 39.26%; IC50 [4]: 1420 nM
